# Results published in publication PMC10765884, “MC180295 is a highly potent and selective CDK9 inhibitor with preclinical in vitro and in vivo efficacy in cancer” (Clinical Epigenetics, 2024).
# Assays:
# Test in all cases: Growth inhibition (cell counting, day 5)
# Format in all cases: cell-based
# 451LU = settings: Melanoma
# Procedure: (§1) The live-cell assay for GFP reactivation in YB5 cells was done as previously described. Cells were treated with a single dose of drug 24 h after seeding at low density, and GFP fluorescence measured in a Millipore Guava flow cytometer (EMD, Millipore) instrument, or by imaging in a Cytation instrument (Agilent). Cancer cell lines (listed in Additional file 1: Fig. S1A) were obtained from ATCC or the Temple/Fox Chase Cellular Repository and cultured in the recommended medium. To measure growth inhibition, cells were seeded in 96-well plates at 40% confluency. Fresh medium was changed the next day and drugs were added directly. Drug-free fresh medium was changed on the fourth day. The cells were collected on day 5 by trypsin, suspended in medium, mixed with trypan blue (Thermo Fisher Scientific) (1:1 ratio), and counted using a LUNA II automated cell counter. Each sample was counted at least three times, and average numbers used for the analysis. Each treatment condition was performed in biological triplicates.
# A2058 = settings: Homo sapiens, Melanoma
# Procedure: as §1
# A375 = settings: Homo sapiens, A-375; Melanoma
# Procedure: as §1
# BT474 = settings: Homo sapiens, BT-474; Breast
# Procedure: as §1
# BT549 = settings: Homo sapiens, BT-549; Breast
# Procedure: as §1
# CT26.CL25 = settings: Mus musculus; Colon
# Procedure: as §1
# DU145 = settings: Homo sapiens, DU-145; Prostate
# Procedure: as §1
# HCC2218 = settings: Homo sapiens, Breast
# Procedure: as §1
# HCCC1937 = settings: Breast
# Procedure: as §1
# HCT116 = settings: Homo sapiens, HCT-116; Colon
# Procedure: as §1
# HL-60 = settings: Homo sapiens, Leukemia
# Procedure: as §1
# HT29 = settings: Homo sapiens, HT-29; Colon
# Procedure: as §1
# HTB126 = settings: Breast
# Procedure: as §1
# Jurkat = settings: Homo sapiens, Leukemia
# Procedure: as §1
# K562 = settings: Homo sapiens, Leukemia
# Procedure: as §1
# KG-1 = settings: Homo sapiens, Leukemia
# Procedure: as §1
# KM12 = settings: Homo sapiens, Colon
# Procedure: as §1
# LOVO = settings: Homo sapiens, Colon
# Procedure: as §1
# LnCap = settings: Homo sapiens, Prostate
# Procedure: as §1
# MALME-3M = settings: Homo sapiens, Melanoma
# Procedure: as §1
# MCF7 = settings: Homo sapiens, Breast
# Procedure: as §1
# OCI-AML3 = settings: Homo sapiens, OCI-AML-3; Leukemia
# Procedure: as §1
# PC3 = settings: Homo sapiens, PC-3; Prostate
# Procedure: as §1
# RKO = settings: Homo sapiens, Colon
# Procedure: as §1
# Raji = settings: Homo sapiens, Leukemia
# Procedure: as §1
# SKBR3 = settings: Homo sapiens, SK-BR-3; Breast
# Procedure: as §1
# SW480 = settings: Homo sapiens, Colon
# Procedure: as §1
# SW48 = settings: Homo sapiens, Colon
# Procedure: as §1
# THP-1 = settings: Homo sapiens, Leukemia
# Procedure: as §1
# UC16 = settings: Bladder
# Procedure: as §1
# UC3 = settings: Bladder
# Procedure: as §1
# WM3912 = settings: Melanoma
# Procedure: as §1
# WM3918 = settings: Melanoma
# Procedure: as §1
# WM88 = settings: Melanoma
# Procedure: as §1
# WM983B = settings: Melanoma
# Procedure: as §1
# sk-mel28 = settings: Homo sapiens, SK-MEL-28; Melanoma
# Procedure: as §1
smiles,measurement,setting,value
Nc1nc(N[C@H]2C[C@@H]3CC[C@H]2C3)sc1C(=O)c1ccccc1[N+](=O)[O-] (relative stereo) [MC180295],IC50,451LU,110 nM
same,IC50,A2058,198 nM
same,IC50,A375,189 nM
same,IC50,BT474,80 nM
same,IC50,BT549,290 nM
same,IC50,CT26.CL25,166 nM
same,IC50,DU145,211 nM
same,IC50,HCC2218,70.6 nM
same,IC50,HCCC1937,124 nM
same,IC50,HCT116,92.2 nM
same,IC50,HL-60,121 nM
same,IC50,HT29,75.6 nM
same,IC50,HTB126,92 nM
same,IC50,Jurkat,141 nM
same,IC50,K562,502 nM
same,IC50,KG-1,148 nM
same,IC50,KM12,102 nM
same,IC50,LOVO,199 nM
same,IC50,LnCap,109 nM
same,IC50,MALME-3M,350 nM
same,IC50,MCF7,177 nM
same,IC50,OCI-AML3,95.3 nM
same,IC50,PC3,213 nM
same,IC50,RKO,76.8 nM
same,IC50,Raji,137 nM
same,IC50,SKBR3,122 nM
same,IC50,SW480,154 nM
same,IC50,SW48,98.1 nM
same,IC50,THP-1,43 nM
same,IC50,UC16,77 nM
same,IC50,UC3,101 nM
same,IC50,WM3912,119 nM
same,IC50,WM3918,150 nM
same,IC50,WM88,103 nM
same,IC50,WM983B,250 nM
same,IC50,sk-mel28,422 nM
